ChEMBL document CHEMBL5223189, “Discovery of Selective Aldehyde Dehydrogenase Inhibitors for the Treatment of Cancer” (ACS Med Chem Lett, 2023)
pIC50: −log10 of the molar value.

How the values were obtained:
[1] = target: T1, Retinaldehyde dehydrogenase 3 (Homo sapiens, UniProt P47895); test: Inhibition of full length human ALDH1A3 using propionaldehyde as substrate preincubated for 30 mins followed by substrate addition and measured after 30 mins in presence of NAD by luminescence microplate reader analysis
T1 sequence (P47895 whole entry): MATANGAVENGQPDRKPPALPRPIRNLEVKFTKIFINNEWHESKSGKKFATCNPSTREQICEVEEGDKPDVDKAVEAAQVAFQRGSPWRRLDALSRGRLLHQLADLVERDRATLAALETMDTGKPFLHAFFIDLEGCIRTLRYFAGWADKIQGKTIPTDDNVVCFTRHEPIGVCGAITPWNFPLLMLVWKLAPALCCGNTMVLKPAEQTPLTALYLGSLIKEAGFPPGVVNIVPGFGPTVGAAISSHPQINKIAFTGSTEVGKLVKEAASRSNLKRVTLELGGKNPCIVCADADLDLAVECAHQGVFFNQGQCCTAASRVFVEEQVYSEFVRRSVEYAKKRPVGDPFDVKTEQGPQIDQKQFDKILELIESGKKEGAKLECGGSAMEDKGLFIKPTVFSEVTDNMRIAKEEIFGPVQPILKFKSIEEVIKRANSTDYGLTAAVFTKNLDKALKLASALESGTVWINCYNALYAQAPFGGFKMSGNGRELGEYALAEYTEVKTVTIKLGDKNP

[2] = target: T1, Retinaldehyde dehydrogenase 3; test: Inhibition of human ALDH1A3 in human WM266-4 cells incubated for 60 mins using BODIPY-aminoacetaldehyde as substrate in presence of ALDEFLUOR assay buffer by Hoechst 33342 staining based cell Insight fluorescent microscopic anlaysis
[3] = target: T2, Aldehyde dehydrogenase, mitochondrial (Homo sapiens, UniProt P05091); test: Inhibition of full length human ALDH2 using propionaldehyde as substrate preincubated for 30 mins followed by substrate addition and measured after 30 mins in presence of NAD by luminescence microplate reader analysis
T2 sequence (P05091 whole entry): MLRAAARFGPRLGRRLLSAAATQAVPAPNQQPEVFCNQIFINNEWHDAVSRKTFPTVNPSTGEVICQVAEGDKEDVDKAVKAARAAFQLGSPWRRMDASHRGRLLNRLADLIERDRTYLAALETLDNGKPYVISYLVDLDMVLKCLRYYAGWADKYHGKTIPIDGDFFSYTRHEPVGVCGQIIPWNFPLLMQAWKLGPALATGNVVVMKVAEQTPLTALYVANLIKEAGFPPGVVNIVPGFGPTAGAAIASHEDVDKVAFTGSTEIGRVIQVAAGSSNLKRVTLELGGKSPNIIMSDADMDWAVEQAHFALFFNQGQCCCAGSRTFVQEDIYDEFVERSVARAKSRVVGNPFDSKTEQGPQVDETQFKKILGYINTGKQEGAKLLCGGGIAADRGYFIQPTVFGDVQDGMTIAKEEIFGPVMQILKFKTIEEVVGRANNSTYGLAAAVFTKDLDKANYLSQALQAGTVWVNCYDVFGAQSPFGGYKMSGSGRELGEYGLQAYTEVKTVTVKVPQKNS

[4] = target: T3, Aldehyde dehydrogenase 1A1 (Homo sapiens, UniProt P00352); test: Inhibition of full length human ALDH1A1 using propionaldehyde as substrate preincubated for 30 mins followed by substrate addition and measured after 30 mins in presence of NAD by luminescence microplate reader analysis
T3 sequence (P00352 whole entry): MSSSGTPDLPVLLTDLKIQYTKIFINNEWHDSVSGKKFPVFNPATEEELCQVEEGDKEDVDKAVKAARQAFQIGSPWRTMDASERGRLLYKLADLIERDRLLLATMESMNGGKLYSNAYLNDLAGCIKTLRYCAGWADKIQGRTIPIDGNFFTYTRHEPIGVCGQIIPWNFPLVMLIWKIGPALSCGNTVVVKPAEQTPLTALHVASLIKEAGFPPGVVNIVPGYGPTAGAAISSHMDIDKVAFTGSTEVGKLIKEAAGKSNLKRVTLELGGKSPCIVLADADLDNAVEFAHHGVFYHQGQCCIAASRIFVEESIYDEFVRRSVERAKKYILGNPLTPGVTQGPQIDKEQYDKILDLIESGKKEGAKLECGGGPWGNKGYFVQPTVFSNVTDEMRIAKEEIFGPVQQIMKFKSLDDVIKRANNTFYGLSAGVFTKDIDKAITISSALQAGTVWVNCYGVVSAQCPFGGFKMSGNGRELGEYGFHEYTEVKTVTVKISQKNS

Retinal dehydrogenase 2 = target: T4, Retinal dehydrogenase 2 (Homo sapiens, UniProt O94788); test: Inhibition of full length human ALDH1A2 using propionaldehyde as substrate preincubated for 30 mins followed by substrate addition and measured after 30 mins in presence of NAD by luminescence microplate reader analysis
T4 sequence (O94788 whole entry): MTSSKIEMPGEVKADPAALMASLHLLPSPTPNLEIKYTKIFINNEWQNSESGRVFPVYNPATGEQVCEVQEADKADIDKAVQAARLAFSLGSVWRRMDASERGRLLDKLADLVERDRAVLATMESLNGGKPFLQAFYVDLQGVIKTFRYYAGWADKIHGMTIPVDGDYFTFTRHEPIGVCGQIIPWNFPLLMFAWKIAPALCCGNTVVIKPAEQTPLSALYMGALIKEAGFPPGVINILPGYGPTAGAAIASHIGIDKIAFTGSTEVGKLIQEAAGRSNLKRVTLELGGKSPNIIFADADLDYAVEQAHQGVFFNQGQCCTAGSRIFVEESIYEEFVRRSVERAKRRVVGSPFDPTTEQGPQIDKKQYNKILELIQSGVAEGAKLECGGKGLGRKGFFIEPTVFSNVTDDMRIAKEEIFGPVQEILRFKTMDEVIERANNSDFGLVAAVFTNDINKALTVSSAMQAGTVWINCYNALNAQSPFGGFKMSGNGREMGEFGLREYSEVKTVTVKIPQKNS

Structure (SMILES)	pIC50 [1]	pIC50 [2]	pIC50 [3]	pIC50 [4]	pIC50 (Retinal dehydrogenase 2)
O=C1CCc2cc(OCCN3CCC[C@@H]3c3cccc(F)c3)ccc2N1	> 7.00	> 7.00	≤ 4.00	≤ 4.00	7.00
O=C1CCc2cc(OCCN3CCCC3c3cccc(F)c3)ccc2N1 (stereo not given)	> 7.00	> 7.00	≤ 4.00	≤ 4.00	7.00
O=C1CCc2cc(NC(=O)c3sc(N4CCNCC4)nc3-c3cccc(F)c3)ccc2N1	> 7.00	> 7.00	≤ 4.00	≤ 4.00	5.00

Results, then the molecule that gave them:

pIC50 [1]	pIC50 [2]	pIC50 [3]	pIC50 [4]	pIC50 (Retinal dehydrogenase 2)	Structure (SMILES)
> 7.00	> 7.00	≤ 4.00	≤ 4.00	6.00	CN(C)c1nc(-c2cccc(F)c2)c(C(=O)Nc2ccc3c(c2)CCC(=O)N3)s1
> 7.00	> 7.00	≤ 4.00	≤ 4.00	6.00	O=C1CCc2cc(NC(=O)c3scnc3-c3cccc(F)c3)ccc2N1
> 7.00	> 7.00	≤ 4.00	≤ 4.00	≤ 4.00	O=C1CCc2cc(NC(=O)c3sc(N4CC(O)C4)nc3-c3cccc(F)c3)ccc2N1
> 7.00	> 7.00	≤ 4.00	≤ 4.00	6.00	O=C1CCc2cc(NC(=O)c3scnc3-c3ccccc3F)ccc2N1
> 7.00	> 7.00	≤ 4.00	≤ 4.00	≤ 4.00	O=C1CCc2cc(NC(=O)c3sc(N4CCOCC4)nc3-c3cccc(F)c3)ccc2N1
